Experimental data published in patent publication US20080227813A1, “Pharmaceutical compositions and methods for treating diseases associated with neurodegeneration” (priority 2006, published 2008).

Columns and labels:
[1] = Relative animal toxicokinetic and human pharmacokinetic drug exposures; type: in vivo; details: maximum human drug exposure (100 mg tid) = 1.0
Beagle dogs = test: 28-day repeated dose oral toxicity study in dogs; type: in vivo, dog; details: for No observed adverse effect level (NOAEL): Beagle dogs male and female, 28-day oral
Procedure: The control animals were treated in the same manner with placebo gelatin capsules.
Pre-treatment: hematological, clinical chemistry and ECG investigations and opthalmoscopic examinations were performed.
During the treatment period: check of mortality and clinical observation were performed at least twice daily and weighing the non-consumed food was performed daily. The body weights of animals were measured once a week. At the end of the treatment, hematological laboratory and ECG investigations, opthalmoscopic examinations, gross necropsy, histopathological and histometrical examinations were performed.

[2] = dog, 70-210 mg/kg/day oral, 28 days

Compound: [O-][n+]1cccc(/C(Cl)=N/OC[C@H](O)CN2CCCCC2)c1 [Compound I, N-[2-hydroxy-3-(1-piperidinyl)-propoxy]-pyridine-1-oxide-3-carboximidoyl chloride]
- Fold-above minimum effective mouse exposure ([1]; AUC): 12
- Fold-above minimum effective rat exposure ([1]; AUC): 5.9
- Fold-below dog drug exposure at NOAEL ([1]; AUC): 17
- Fold-below rat drug exposure at NOAEL ([1]; AUC): 6.0
- Fold-above minimum effective mouse exposure ([1]; Cmax): 2.8
- Fold-above minimum effective rat exposure ([1]; Cmax): 1.4
- Fold-below dog drug exposure at NOAEL ([1]; Cmax): 5
- Fold-below rat drug exposure at NOAEL ([1]; Cmax): 28
- No observed adverse effect level (NOAEL) (Beagle dogs; by base): 43.4 mg/kg/day
- No observed adverse effect level (NOAEL) (Beagle dogs; by citrate): 70 mg/kg/day
- ECG and ophthalmologic alterations (Beagle dogs; [2]): did not cause ECG and opthalmologic alterations
- mortality (Beagle dogs; [2]): No deaths occurred
